Results reported in patent publication US10363257B2 (ZENITH EPIGENETICS LTD., priority 2013, dated 2019).

Tests used:
[1] = target: T1, Brd4 bromodomain 1 (BRD4(1)) (Homo sapiens, UniProt O60885); assay: Inhibition of tetra-acetylated histone H4 binding to Brd4 bromodomain 1 (TR-FRET); conditions: tetra-acetylated histone H4 peptide, first bromodomain of Brd4
T1 construct: made in house; host or cells: E. coli BL21(DE3)
Method: Proteins were cloned and overexpressed with a N-terminal 6× His tag, then purified by nickel affinity followed by size exclusion chromatography. Briefly, E.coli BL21(DE3) cells were transformed with a recombinant expression vector encoding N-terminally Nickel affinity tagged bromodomains from Brd2, Brd3, Brd4. Cell cultures were incubated at 37° C. with shaking to the appropriate density and induced overnight with IPTG. The supernatant of lysed cells was loaded onto Ni-IDA column for purification. Eluted protein was pooled, concentrated and further purified by size exclusion chromatography. Fractions representing monomeric protein were pooled, concentrated, aliquoted, and frozen at −80° C. for use in subsequent experiments.
Binding of tetra-acetylated histone H4 and BET bromodomains was confirmed by a Time Resolved Fluorescence Resonance Energy Transfer (TR-FRET) method. N-terminally His-tagged bromodomains (200 nM) and biotinylated tetra-acetylated histone H4 peptide (25-50 nM, Millipore) were incubated in the presence of Europium Cryptate-labeled streptavidin (Cisbio Cat. #610SAKLB) and XL665-labeled monoclonal anti-His antibody (Cisbio Cat. #61HISXLB) in a white 96 well microtiter plate (Greiner). For inhibition assays, serially diluted test compound was added to these reactions in a 0.2% final concentration of DMSO. Final buffer concentrations were 30 mM HEPES pH 7.4, 30 mM NaCl, 0.3 mM CHAPS, 20 mM phosphate pH 7.0, 320 mM KF, 0.08% BSA). After a 2-h incubation at room temperature, the fluorescence by FRET was measured at 665 and 620 nm by a SynergyH4 plate reader (Biotek). The binding inhibitory activity was shown by a decrease in 665 nm fluorescence relative to 620 nm. IC50 values were determined from a dose response curve.

c-myc = assay: Inhibition of c-myc expression (mRNA, real-time PCR) in MV4-11 cells; type: cell-based; conditions: Human AML MV4-11 cells, 3 h, cMYC mRNA
Method: MV4-11 cells (CRL-9591) were plated at a density of 2.5×10^4 cells per well in 96 well U-bottom plates and treated with increasing concentrations of test compound or DMSO (0.1%) in IMDM media containing 10% FBS and penicillin/streptomycin, and incubated for 3 h at 37° C. Triplicate wells were used for each concentration. Cells were pelleted by centrifugation and harvested using the mRNA Catcher PLUS kit according to manufacturer's instructions. The eluted mRNA isolated was then used in a one-step quantitative real-time PCR reaction, using components of the RNA UltraSense™ One-Step Kit (Life Technologies) together with Applied Biosystems TaqMan® primer-probes for cMYC and Cyclophilin. Real-time PCR plates were run on a VIaTM7 real time PCR machine (Applied Biosystems), data was analyzed, normalizing the Ct values for cMYC to an internal control, prior to determining the fold expression of each sample, relative to the control.

human AML MV-4-11 cells = assay: Inhibition of cell proliferation in MV4-11 cells (CellTiter Aqueous One); type: cell-based; conditions: for IC50: MV4-11, 72 h; for Cell Proliferation activity: 72 h
Method: MV4-11 cells: 96-well plates were seeded with 5×10^4 cells per well of exponentially growing human AML MV-4-11 (CRL-9591) cells and immediately treated with two-fold dilutions of test compounds, ranging from 30 μM to 0.2 μM. Triplicate wells were used for each concentration, as well as a media only and three DMSO control wells. The cells and compounds were incubated at 37° C., 5% CO2 for 72 h before adding 20 μL of the CellTiter Aqueous One Solution (Promega) to each well and incubating at 37° C., 5% CO2 for an additional 3-4 h. The absorbance was taken at 490 nm in a spectrophotometer and the percentage of proliferation relative to DMSO-treated cells was calculated after correction from the blank well. IC50 were calculated using the GraphPad Prism software.

Row | IC50 [1] [µM] | IC50 (c-myc) [µM] | IC50 (human AML MV-4-11 cells) [µM] | SMILES | Cell Proliferation activity (human AML MV-4-11 cells)
1 | ≤ 0.3 | ≤ 0.3 | ≤ 0.3 | Cc1noc(C)c1-c1cnc2nc(N3CCCC3)n(Cc3ccccc3)c2c1 [compound 195, 4-(1-benzyl-2-(pyrrolidin-1-yl)-1H-imidazo[4,5-b]pyridin-6-yl)-3,5-dimethylisoxazole] | 
2 | ≤ 0.3 | ≤ 0.3 | 0.3 to 3 | Cc1noc(C)c1-c1cnc2nc(NCCO)n(Cc3ccccc3)c2c1 [compound 196, 2-((1-benzyl-6-(3,5-dimethylisoxazol-4-yl)-1H-imidazo[4,5-b]pyridin-2-yl)amino)ethanol] | 
3 | ≤ 0.3 | ≤ 0.3 | 0.3 to 3 | Cc1noc(C)c1-c1cc(N)c2[nH]c(=O)n([C@@H](C)c3ccccc3)c2c1 [compound 178, (S)-4-amino-6-(3,5-dimethylisoxazol-4-yl)-1-(1-phenylethyl)-1H-benzo[d]imidazol-2(3H)-one] | 
4 | ≤ 0.3 | 0.3 to 3 | 0.3 to 3 | CCOc1nc2c(NC(C)=O)cc(-c3c(C)noc3C)cc2n1Cc1ccccc1 [compound 120, N-(1-benzyl-6-(3,5-dimethylisoxazol-4-yl)-2-ethoxy-1H-benzo[d]imidazol-4-yl)acetamide] | 
5 | ≤ 0.3 | ≤ 0.3 | ≤ 0.3 | COCCNc1nc2ncc(-c3c(C)noc3C)cc2n1Cc1ccccc1 [compound 167, 1-benzyl-6-(3,5-dimethylisoxazol-4-yl)-N-(2-methoxyethyl)-1H-imidazo[4,5-b]pyridin-2-amine] | 
6 | ≤ 0.3 | ≤ 0.3 | ≤ 0.3 | Cc1noc(C)c1-c1cnc2nc(NC3CCOCC3)n(Cc3ccccc3)c2c1 [compound 170, 1-benzyl-6-(3,5-dimethylisoxazol-4-yl)-N-(tetrahydro-2H-pyran-4-yl)-1H-imidazo[4,5-b]pyridin-2-amine] | 
7 | ≤ 0.3 | ≤ 0.3 | 0.3 to 3 | Cc1noc(C)c1-c1cnc2nc(C3CC3)n(Cc3ccccc3)c2c1 [compound 138, 4-(1-benzyl-2-cyclopropyl-1H-imidazo[4,5-b]pyridin-6-yl)-3,5-dimethylisoxazole] | 
8 | ≤ 0.3 | 0.3 to 3 | 0.3 to 3 | Cc1noc(C)c1-c1cnc2[nH]c(=O)n(Cc3ccc(Cl)s3)c2c1 [compound 124, 1-((5-chlorothiophen-2-yl)methyl)-6-(3,5-dimethylisoxazol-4-yl)-1H-imidazo[4,5-b]pyridin-2(3H)-one] | 
9 | 0.3 to 3 | ≤ 0.3 | ≤ 0.3 | Cc1noc(C)c1-c1cc(N)c2[nH]c(=S)n(Cc3ccccc3)c2c1 [compound 177, 4-amino-1-benzyl-6-(3,5-dimethylisoxazol-4-yl)-1H-benzo[d]imidazole-2(3H)-thione] | 
10 | ≤ 0.3 | ≤ 0.3 | ≤ 0.3 | Cc1noc(C)c1-c1cnc2nc(NCc3cccnc3)n(Cc3ccccc3)c2c1 [compound 185, 1-benzyl-6-(3,5-dimethylisoxazol-4-yl)-N-(pyridin-3-ylmethyl)-1H-imidazo[4,5-b]pyridin-2-amine] | 
11 | ≤ 0.3 | 0.3 to 3 | 0.3 to 3 | Cc1noc(C)c1-c1cnc2[nH]c(=O)n(CC3CCCC3)c2c1 [compound 202, 1-(cyclopentylmethyl)-6-(3,5-dimethylisoxazol-4-yl)-1H-imidazo[4,5-b]pyridin-2(3H)-one] | 
12 | ≤ 0.3 | 0.3 to 3 | 0.3 to 3 | Cc1noc(C)c1-c1cc([N+](=O)[O-])c2[nH]c(=O)n(C(C)c3ccccc3)c2c1 (centres unmarked) [compound 110, 6-(3,5-dimethylisoxazol-4-yl)-4-nitro-1-(1-phenylethyl)-1H-benzo[d]imidazol-2(3H)-one] | 
13 | ≤ 0.3 | 0.3 to 3 | 0.3 to 3 | Cc1oncc1-c1cc(N)c2nc(C)n(Cc3ccccc3)c2c1 [compound 201, 1-benzyl-2-methyl-6-(5-methylisoxazol-4-yl)-1H-benzo[d]imidazol-4-amine] | 
14 | ≤ 0.3 | 0.3 to 3 | 0.3 to 3 | Cc1noc(C)c1-c1cnc2nc(N3CCN(C)CC3)n(Cc3ccccc3)c2c1 [compound 165, 4-(1-benzyl-2-(4-methylpiperazin-1-yl)-1H-imidazo[4,5-b]pyridin-6-yl)-3,5-dimethylisoxazole] | 
15 | ≤ 0.3 | ≤ 0.3 | ≤ 0.3 | Cc1noc(C)c1-c1cc(N2CC(O)C2)c2nc(C)n(Cc3ccccc3)c2c1 [compound 197, 1-(1-benzyl-6-(3,5-dimethylisoxazol-4-yl)-2-methyl-1H-benzo[d]imidazol-4-yl)azetidin-3-ol] | 
16 | ≤ 0.3 | 0.3 to 3 | 0.3 to 3 | Cc1noc(C)c1-c1ccc2c(c1)N(Cc1ccccc1)[C@H](C)C(=O)N2 [compound 174, (R)-4-benzyl-6-(3,5-dimethylisoxazol-4-yl)-3-methyl-3,4-dihydroquinoxalin-2(1H)-one] | 
17 | 3 to 30 |  |  | Cc1noc(C)c1-c1cnc2ncn(Cc3ccccn3)c2c1 [Example Compound 47, 3,5-dimethyl-4-(1-(pyridin-2-ylmethyl)-1H-imidazo[4,5-b]pyridin-6-yl)isoxazole] | Not active
18 | ≤ 0.3 | ≤ 0.3 | 0.3 to 3 | Cc1noc(C)c1-c1cnc2nc(C)n(Cc3ccccc3)c2c1C [compound 181, 4-(1-benzyl-2,7-dimethyl-1H-imidazo[4,5-b]pyridin-6-yl)-3,5-dimethylisoxazole] | 
19 | ≤ 0.3 | ≤ 0.3 | ≤ 0.3 | Cc1noc(C)c1-c1cc(N)c2[nH]c(=O)n([C@H](C)c3ccccc3)c2c1 [compound 179, (R)-4-amino-6-(3,5-dimethylisoxazol-4-yl)-1-(1-phenylethyl)-1H-benzo[d]imidazol-2(3H)-one] | 
20 | ≤ 0.3 | 0.3 to 3 | 0.3 to 3 | CC(=O)Nc1cc(-c2c(C)noc2C)cc2c1nc(N1CCC1)n2Cc1ccccc1 [compound 130, N-(2-(azetidin-1-yl)-1-benzyl-6-(3,5-dimethylisoxazol-4-yl)-1H-benzo[d]imidazol-4-yl)acetamide] | 
21 | 3 to 30 |  |  | Cc1noc(C)c1-c1cc2c([nH]c1=O)c(C)nn2Cc1ccc(F)cc1 [Example Compound 25, 6-(3,5-dimethylisoxazol-4-yl)-1-(4-fluorobenzyl)-3-methyl-1H-pyrazolo[4,3-b]pyridin-5(4H)-one] | Not active
22 | ≤ 0.3 |  |  | COC(=O)c1cc(-c2c(C)noc2C)cc2c1[nH]c(=O)n2Cc1ccccc1 [Example Compound 20, methyl 1-benzyl-6-(3,5-dimethylisoxazol-4-yl)-2-oxo-2,3-dihydro-1H-benzo[d]imidazole-4-carboxylate] | Not active
23 | ≤ 0.3 |  | 3 to 30 | Cc1nc2ncc(-c3cnnn3C)cc2n1Cc1ccccc1 [compound 206, 1-benzyl-2-methyl-6-(1-methyl-1H-1,2,3-triazol-5-yl)-1H-imidazo[4,5-b]pyridine] | 
24 | 0.3 to 3 |  |  | Cc1noc(C)c1-c1cc(Br)c2nc(C)n(C(=O)c3ccccc3)c2c1 [compound 200, (4-bromo-6-(3,5-dimethylisoxazol-4-yl)-2-methyl-1H-benzo[d]imidazol-1-yl)(phenyl)methanone] | Not active
25 | 0.3 to 3 |  |  | CCOc1nc2ncc(-c3c(C)noc3C)cc2n1Cc1ccccc1 [Example Compound 59, 4-(1-benzyl-2-ethoxy-1H-imidazo[4,5-b]pyridin-6-yl)-3,5-dimethylisoxazole] | Not active
26 | 3 to 30 |  | 3 to 30 | Cc1noc(C)c1-c1ccc2[nH]cc(Nc3cccc(C#N)c3)c2n1 [Example Compound 57, 3-((5-(3,5-dimethylisoxazol-4-yl)-1H-pyrrolo[3,2-b]pyridin-3-yl)amino)benzonitrile] | 
